Usually half-life stands for how long it takes for the measured level to halve. Read a low half-life as fast loss. By fraction unbound is commonly meant free concentration divided by total concentration. A lower fraction unbound goes with extensive binding.

Data set [1] can be described thus: in vitro. As to conditions: rat, microsomes, pH 7.4.
Data set [2] can be described thus: Toleration studies in mice. As to conditions: 210 mg/kg/day for 14 days, mice.
Data set [3] in a line: in vitro. To be noted: human, plasma.
Another data set has as its target T1, CYP2D6 (Homo sapiens, UniProt P10635).
T1 construct: tissue BD Biosciences; host or cells: pooled human liver microsomes
Briefly: Cytochrome P450 phenotyping in human liver microsomes, CYP2D6 (quinidine). The data set is classed as in vitro ADME. To be noted: HLM, 1 μM quinidine. The text has this: (§1) % Disappearance=[(TC-NADPH TC+NADPH)/TC-NADPH]×100
(§2) for which TC is the test compound.

The target of the next data set is CYP2C19 (Homo sapiens, UniProt P33261). As to conditions: HLM, 5 μM (+)-N-3-benzylnirvanol.
Data set [4] is described as follows: in vitro. To be noted: plasma.
The nature of data set [5]: in vitro. As to conditions: Sprague-Dawley (rat), beagle (dog), CD-1 (mouse), human, plasma.
A short description of data set [6]: in vitro. To be noted: dog, plasma, pH 7.4.
Another data set addresses T2, CYP1A2 (Homo sapiens, UniProt P05177).
T2 construct: tissue BD Biosciences; host or cells: pooled human liver microsomes
T2 sequence (P05177 1-516): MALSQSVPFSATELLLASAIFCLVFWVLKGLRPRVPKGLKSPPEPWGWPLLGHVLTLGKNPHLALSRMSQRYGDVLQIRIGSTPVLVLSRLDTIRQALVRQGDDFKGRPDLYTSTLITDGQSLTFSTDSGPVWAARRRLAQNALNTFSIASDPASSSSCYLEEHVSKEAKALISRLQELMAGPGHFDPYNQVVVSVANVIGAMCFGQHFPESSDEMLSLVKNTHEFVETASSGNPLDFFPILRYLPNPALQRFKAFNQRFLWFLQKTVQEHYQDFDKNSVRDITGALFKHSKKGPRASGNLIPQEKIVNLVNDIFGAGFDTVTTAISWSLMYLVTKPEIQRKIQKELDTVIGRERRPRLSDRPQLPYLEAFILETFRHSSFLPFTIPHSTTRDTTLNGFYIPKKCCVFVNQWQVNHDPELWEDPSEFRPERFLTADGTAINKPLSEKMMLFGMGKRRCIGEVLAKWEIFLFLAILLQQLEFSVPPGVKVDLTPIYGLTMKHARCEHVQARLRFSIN
Briefly: Cytochrome P450 phenotyping in human liver microsomes, CYP1A2 (furafylline). The data set is classed as in vitro ADME. As to conditions: HLM, 10 μM furafylline.
Excerpt: as §1, §2
A general note: Liver microsomes are a subcellular fraction often used to study metabolism.

A short description of data set [7]: in vitro. To be noted: rat, plasma, pH 7.4.
The next data set addresses T3, CYP2C9 (Homo sapiens, UniProt P11712).
T3 construct: tissue BD Biosciences; host or cells: pooled human liver microsomes
Briefly: Cytochrome P450 phenotyping in human liver microsomes, CYP2C9 (sulfaphenazole). The class given is in vitro ADME. To be noted: HLM, 5 μM sulfaphenazole.
Excerpt: as §1, §2

Bounds are passed on as bounds.

T1 sequence (P10635 whole entry): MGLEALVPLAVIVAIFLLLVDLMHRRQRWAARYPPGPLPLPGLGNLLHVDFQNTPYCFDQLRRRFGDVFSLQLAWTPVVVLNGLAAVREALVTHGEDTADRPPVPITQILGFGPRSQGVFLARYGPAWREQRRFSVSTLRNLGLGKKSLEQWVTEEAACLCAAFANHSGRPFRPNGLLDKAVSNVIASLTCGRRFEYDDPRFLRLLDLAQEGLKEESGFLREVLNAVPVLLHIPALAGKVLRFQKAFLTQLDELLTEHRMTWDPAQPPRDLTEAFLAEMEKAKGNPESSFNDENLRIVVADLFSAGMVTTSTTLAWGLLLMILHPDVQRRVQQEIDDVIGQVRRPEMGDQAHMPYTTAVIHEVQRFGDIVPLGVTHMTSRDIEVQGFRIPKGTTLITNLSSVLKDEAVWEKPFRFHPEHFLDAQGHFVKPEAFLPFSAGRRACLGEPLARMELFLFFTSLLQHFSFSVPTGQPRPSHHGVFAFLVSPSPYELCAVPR
Chain of CYP2C19 (P33261 whole entry): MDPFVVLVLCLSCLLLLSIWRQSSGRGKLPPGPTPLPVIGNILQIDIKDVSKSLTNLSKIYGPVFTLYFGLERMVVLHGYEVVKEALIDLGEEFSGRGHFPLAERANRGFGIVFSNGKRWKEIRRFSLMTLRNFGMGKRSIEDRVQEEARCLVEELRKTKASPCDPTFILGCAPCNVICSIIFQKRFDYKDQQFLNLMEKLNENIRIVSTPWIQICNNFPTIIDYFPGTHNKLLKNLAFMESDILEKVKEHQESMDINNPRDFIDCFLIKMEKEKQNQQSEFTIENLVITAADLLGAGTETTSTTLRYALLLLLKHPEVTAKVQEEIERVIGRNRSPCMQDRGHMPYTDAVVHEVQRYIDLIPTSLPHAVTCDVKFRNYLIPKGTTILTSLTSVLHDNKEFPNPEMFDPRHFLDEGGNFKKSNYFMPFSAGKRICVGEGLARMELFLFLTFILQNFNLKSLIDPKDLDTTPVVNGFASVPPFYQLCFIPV
T3 sequence (P11712 whole entry): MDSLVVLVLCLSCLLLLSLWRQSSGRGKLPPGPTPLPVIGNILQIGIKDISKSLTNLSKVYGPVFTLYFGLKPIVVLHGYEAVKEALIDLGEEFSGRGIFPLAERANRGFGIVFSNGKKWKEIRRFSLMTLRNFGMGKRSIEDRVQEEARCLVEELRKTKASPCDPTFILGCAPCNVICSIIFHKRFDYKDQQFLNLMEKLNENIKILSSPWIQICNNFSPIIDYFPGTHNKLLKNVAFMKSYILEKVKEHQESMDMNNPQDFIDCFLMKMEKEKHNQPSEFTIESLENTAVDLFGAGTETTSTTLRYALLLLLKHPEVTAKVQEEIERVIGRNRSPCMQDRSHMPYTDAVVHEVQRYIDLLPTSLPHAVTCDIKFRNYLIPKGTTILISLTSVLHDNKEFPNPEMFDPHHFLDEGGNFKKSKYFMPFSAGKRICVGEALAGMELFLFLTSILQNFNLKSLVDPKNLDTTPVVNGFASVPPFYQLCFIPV

With `Cc1cccc(Nc2nc(-c3ccc(-c4ccccc4)cc3)cs2)n1` [IND24, (4-Biphenyl-4-yl-thiazol-2-yl)-(6-methyl-pyridin-2-yl)-amine], the half-life at 1 μM in “in vitro [1]” was more than 1 h. The Toleration result in data set [2] is listed as “well tolerated”.

On to `Cc1ccnc(Nc2nc(-c3ccc(-c4ccccn4)s3)cs2)c1` [IND81, (4-Methyl-pyridin-2-yl)-[4-(5-pyridin-2-yl-thiophen-2-yl)-thiazol-2-yl]-amine], for which the fraction unbound at 4 h in the data set “in vitro [3]” (pH 7.4, free fraction in plasma) is approximately 0.57; in “in vitro [3]” (pH 7.4, plasma protein binding, 1 and 10 μM), 0.04 to 0.07; in the data set “in vitro [4]” (CD-1, mouse, pH 7.4, free fraction in plasma) it was approximately 0.57; in the data set “in vitro [4]” (mouse, pH 7.4, free fraction in plasma) it was 0.06 to 0.09; in “in vitro [4]” (mouse, pH 7.4, plasma protein binding, 1 and 10 μM), 0.04 to 0.07; in “in vitro [6]” (beagle) it was approximately 0.57. The results for the unbound share (fraction unbound) at 4 h in the data set “in vitro [6]”, in “in vitro [7]” (Sprague-Dawley) and in the data set “in vitro [7]” were 0.04 to 0.07, approximately 0.57 and 0.04 to 0.07, respectively. Moreover, the “involvement of CYP2D6 in metabolism” value at CYP2D6 is “most likely to be involved”. On CYP2C19, the “involvement of CYP2C19 in metabolism” value is listed as “might be involved to a smaller extent”. This compound also came in with an unbound share (fraction unbound) in “in vitro [5]” of 0.57. Further, the “involvement of CYP1A2 in metabolism” value on CYP1A2 is “most likely to be involved”. For the same compound, on CYP2C9, the “involvement of CYP2C9 in metabolism” value is on record as “unlikely to be involved”.

For the origin of these results see patent US20140329863A1 (priority 2011, published 2014).
